Data as given in patent US8653102B2, “Substituted 2-oxo- and 2-thioxo-dihydroquinoline-3-carboxamides as KCNQ2/3 modulators” (Gruenenthal GmbH, priority 2010, dated 2014).
Read-outs that look alike come from different tables or passages of the source.

Key:
KCNQ2/3 channels = target: T1, KCNQ2/3 channels (Homo sapiens, UniProt O43525+O43526); assay: Fluorescence assay using a voltage sensitive dye (fluorimetry); assay type: cell-based
T1 construct: expressed in transfected cells; host or cells: CHO-K1 cells kept under selection antibiotics
Method: Pharmacological Experiments Method I. Fluorescence Assay Using a Voltage Sensitive Dye (Fluorimetry)
[…] CHO-K1 cells expressing KCNQ2/3 channels are cultivated adherently at 37° C., 5% CO2 and 95% humidity in cell culture bottles (e.g. 80 cm^2 TC flasks, Nunc) with DMEM-high glucose (Sigma Aldrich, D7777) including 10% FCS (PAN Biotech, e.g. 3302-P270521) or alternatively MEM Alpha Medium (1×, liquid, Invitrogen, #22571), 10% fetal calf serum (FCS) (Invitrogen, #10270-106, heat-inactivated) and the necessary selection antibiotics.
Before being sown out for the measurements, the cells are washed with 1×DPBS buffer Ca^2+/Mg^2+-free (e.g. Invitrogen, #14190-094) and detached from the bottom of the culture vessel by using Accutase (PAA Laboratories, #L11-007) (incubation with Accutase for 15 min at 37° C.). The cell number is determined using a CASY™ cell counter (TCC, Schärfe System). Depending on the optimal density for each individual cell line, 20,000-30,000 cells/well/100 μl are seeded onto 96-well Corning™ CellBIND™ assay plates (Flat Clear Bottom Black Polystyrene Microplates, #3340). Freshly seeded cells are then left to settle for one hour at room temperature, followed by incubation for 24 hours at 37° C., 5% CO2 and 95% humidity.
The voltage-sensitive fluorescent dye from the Membrane Potential Assay Kit (Red™ Bulk format part R8123 for FLIPR, MDS Analytical Technologies™) is prepared by dissolving the contents of one vessel Membrane Potential Assay Kit Red Component A in 200 ml of extracellular buffer (ES buffer, 120 mM NaCl, 1 mM KCl, 10 mM HEPES, 2 mM CaCl2, 2 mM MgCl2, 10 mM glucose; pH 7.4). After removal of the nutrient medium, the cells are washed once with 200 μl of ES buffer, then loaded for 45 min at room temperature in 100 μl of dye solution in the dark.
Fluorescence measurements are carried out in a BMG Labtech FLUOstar™, BMG Labtech NOVOstar™ or BMG Labtech POLARstar™ instrument (525 nm excitation, 560 nm emission, Bottom Read mode). After incubation with the dye, 50 μl of the test substances in the desired concentrations, or 50 μl of ES buffer for control purposes, are applied to the wells of the assay plate and incubated for 30 min at room temperature while being shielded from light. The fluorescence intensity of the dye is then measured for 5 min and the fluorescence value F1 of each well is thus determined at a given, constant time. 15 μl of a KCl solution are then added to each well (final concentration of potassium ions 92 mM). The change in fluorescence intensity is subsequently monitored until all the relevant values have been obtained (mainly 5-30 min). At a given time post KCl application, a fluorescence value F2 is determined, in this case at the time of the fluorescence peak.
For calculation, the fluorescence intensity F2 is corrected for the fluorescence intensity F1, and the activity (ΔF/F) of the target compound on the potassium channel is determined as follows:
In order to determine whether a substance has agonistic activity,
A substance has an agonistic activity on the potassium channel if
[formula] increases dose dependently.
Calculations of EC50 and IC50 values are carried out with the aid of ‘Prism v4.0’ software (GraphPad Software™).

rat = assay: Low-intensity tail flick test (rat); assay type: in vivo; settings: for ED50: po, peroral, at time of maximum efficacy
Method: Method II. Low-Intensity Tail Flick Test (Rat)
In the low-intensity tail flick test, the determination of the antinociceptive effect of the compounds according to the invention towards an acute noxious thermal stimulus is carried out by measuring the withdrawal reflex of the rat tail (tail flick) in response to a radiant heat beam (analgesia meter; model 2011 of the company Rhema Labortechnik, Hofheim, Germany) according to the method described by D'Amour and Smith (J. Pharm. Exp. Ther. 72, 74 79 (1941). To this end, the rats were placed in a plexiglas restrainer, and a low-intensity radiant heat beam (48° C.) was focused onto the dorsal surface of the tail root. The stimulus intensity was adjusted to result in a mean pre-drug control withdrawal latency of about 7 s, thus also allowing a supraspinal modulation of the spinally mediated acute nociceptive reflex. A cutoff time of 30 s was applied to avoid tissue damage. Male Sprague-Dawley rats (Janvier, Le Genest St. Isle, Frankreich) with weights of 200-250 g were used. 10 rats were used per group. Before administration of a compound according to the invention, the animals were pre-tested twice in the course of five minutes and the mean of these measurements was calculated as the pre-test mean. The antinociceptive effect was determined at 20, 40 and 60 min after peroral compound administration. The antinociceptive effect was calculated based on the increase in the tail withdrawal latency according to the following formula and is expressed as percentage of the maximum possible effect (MPE [%]): MPE=[(T1−T0)/(T2−T0)]*100
In this, T0 is the control latency time before and T1 the latency time after administration of the compound, T2 is the cutoff time and MPE is the maximum possible effect. Employing variant analysis (repeated measures ANOVA) allowed testing of statistically significant differences between the compounds according to the invention and the vehicle group. The significance level was set to p≦0.05. To determine the dose dependency, the particular compound according to the invention was administered in 3-5 logarithmically increasing doses, including a threshold dose and a maximum effective dose, and the ED50 values were determined with the aid of regression analysis. The ED50 calculation was performed at the time of maximum efficacy (usually 20 min after administration of the compounds).

[1] = CHO-K1 cells expressing KCNQ2/3 channels
[2] = CHO-K1 cells expressing KCNQ2/3 channels, relative to retigabine (RTG) = 100%, read-out: Fluorimetry % efficacy (RTG = 100%)

Row | Compound | EC50 (KCNQ2/3 channels; [1]) | Emax (KCNQ2/3 channels; [2]) | ED50 (rat) | Low intensity tail flick, rat, peroral, MPE (dose) (rat; dose 3.16 mg/kg) | Emax (KCNQ2/3 channels; CHO-K1, read-out: Fluorimetry % efficacy (RTG = 100%)) | Low intensity tail flick, rat, peroral, MPE (dose) (rat; dose 10.00 mg/kg)
1 | COCCn1c(=O)c(C(=O)NCc2cccc(F)c2)c(C)c2ccc(C(F)(F)F)cc21 [Example 4, N-[(3-fluorophenyl)-methyl]-1-(2-methoxy-ethyl)-4-methyl-2-oxo-7-(trifluoromethyl)-1H-quinoline-3-carboxylic acid amide] | 850 nM | 195% | 2.8 mg/kg |  |  | 
2 | COCCn1c(=O)c(C(=O)NCc2ccc(F)cc2)c(C)c2ccc(C(F)(F)F)cc21 [Example 7, N-[(4-fluorophenyl)-methyl]-1-(2-methoxy-ethyl)-4-methyl-2-oxo-7-(trifluoromethyl)-1H-quinoline-3-carboxylic acid amide] | 598 nM | 146% |  | 47 (3.16) % |  | 
3 | COCC(COC)n1c(=O)c(C(=O)NCc2cccc(F)c2)c(C)c2ccc(C(F)(F)F)cc21 [Example 31, N-[(3-Fluorophenyl)-methyl]-1-[2-methoxy-1-(methoxymethyl)-ethyl]-4-methyl-2-oxo-7-(trifluoromethyl)-1H-quinoline-3-carboxylic acid amide] | 80 nM |  |  |  | 46% | 
4 | Cc1c(C(=O)NCc2cccc(F)c2)c(=O)n(C)c2cc(F)ccc12 [Example 34, 7-fluoro-N-[(3-fluorophenyl)-methyl]-1,4-dimethyl-2-oxo-1H-quinoline-3-carboxylic acid amide] | 3140 nM | 105% |  |  |  | 
5 | CCOCCn1c(=O)c(C(=O)NCc2cccc(F)c2)c(C)c2ccc(C(F)(F)F)cc21 [Example 39, 1-(2-ethoxy-ethyl)-N-[(3-fluorophenyl)-methyl]-4-methyl-2-oxo-7-(trifluoromethyl)-1H-quinoline-3-carboxylic acid amide] |  | 43% |  |  |  | 
6 | COCCCn1c(=O)c(C(=O)NCc2cccc(F)c2)c(C)c2ccc(C(F)(F)F)cc21 [Example 14, N-[(3-fluorophenyl)-methyl]-1-(3-methoxy-propyl)-4-methyl-2-oxo-7-(trifluoromethyl)-1H-quinoline-3-carboxylic acid amide] | 992 nM | 61% |  |  |  | 
7 | Cc1c(C(=O)NCc2ccc(F)cc2)c(=O)n(C)c2cc(C(F)(F)F)ccc12 [Example 6, N-[(4-fluorophenyl)-methyl]-1,4-dimethyl-2-oxo-7-(trifluoromethyl)-1H-quinoline-3-carboxylic acid amide] | 189 nM | 169% | 0.6 mg/kg |  |  | 
8 | Cc1c(C(=O)NCc2cccc(F)c2)c(=O)n(C)c2ccccc12 [Example 9, N-[(3-fluorophenyl)-methyl]-1,4-dimethyl-2-oxo-1H-quinoline-3-carboxylic acid amide] | 5690 nM | 63% |  |  |  | 
9 | Cc1c(C(=O)NCc2cccc(F)c2)c(=S)n(C)c2cc(C(F)(F)F)ccc12 [Example 3, N-[(3-fluorophenyl)-methyl]-1,4-dimethyl-2-thioxo-7-(trifluoromethyl)-1H-quinoline-3-carboxylic acid amide] | 124 nM | 101% |  |  |  | 24 (10.00) %
10 | COCCn1c(=O)c(C(=O)NCc2ccc(F)cc2)c(C)c2ccc(C#N)cc21 [Example 23, 7-cyano-N-[(4-fluorophenyl)-methyl]-1-(2-methoxy-ethyl)-4-methyl-2-oxo-1H-quinoline-3-carboxylic acid amide] | 3890 nM | 105% |  |  |  | 
11 | COC(=O)CCn1c(=O)c(C(=O)N(C)c2cccc(F)c2)c(C)c2ccc(C(F)(F)F)cc21 [Example 27, 3-[3-[(3-fluorophenyl)-methyl-carbamoyl]-4-methyl-2-oxo-7-(trifluoromethyl)-1H-quinolin-1-yl]-propionic acid methyl ester] |  | 22% |  |  |  | 

Further compounds by falling EC50 (KCNQ2/3 channels; [1]), results first:

Row | EC50 (KCNQ2/3 channels; [1]) | Emax (KCNQ2/3 channels; [2]) | Compound | ED50 (rat) | Low intensity tail flick, rat, peroral, MPE (dose) (rat; dose 3.16 mg/kg) | Emax (KCNQ2/3 channels; CHO-K1, read-out: Fluorimetry % efficacy (RTG = 100%)) | Low intensity tail flick, rat, peroral, MPE (dose) (rat; dose 10.00 mg/kg)
12 | 4990 nM | 103% | Cn1c(=O)c(C(=O)NCc2cccc(F)c2)c(C(F)(F)F)c2ccccc21 [Example 42, N-[(3-fluorophenyl)-methyl]-1-methyl-2-oxo-4-(trifluoromethyl)-1H-quinoline-3-carboxylic acid amide] |  |  |  | 
13 | 3140 nM | 102% | COCCn1c(=O)c(C(=O)NCc2cccc(F)c2)c(C)c2ccc(C#N)cc21 [Example 22, 7-cyano-N-[(3-fluorophenyl)-methyl]-1-(2-methoxy-ethyl)-4-methyl-2-oxo-1H-quinoline-3-carboxylic acid amide] |  |  |  | 
14 | 245 nM | 177% | Cc1c(C(=O)NCc2cccc(F)c2)c(=O)n(C)c2cc(C(F)(F)F)ccc12 [Example 1, N-[(3-fluorophenyl)-methyl]-1,4-dimethyl-2-oxo-7-(trifluoromethyl)-1H-quinoline-3-carboxylic acid amide] | 2.3 mg/kg |  |  | 
15 | 126 nM | 99% | Cc1c(C(=O)NCc2ccc(F)cc2)c(=S)n(C)c2cc(C(F)(F)F)ccc12 [Example 36, N-[(4-fluorophenyl)-methyl]-1,4-dimethyl-2-thioxo-7-(trifluoromethyl)-1H-quinoline-3-carboxylic acid amide] |  |  |  | 
16 | 68 nM | 258% | Cc1c(C(=O)NCCCC(C)(C)C)c(=O)n(C)c2cc(C(F)(F)F)ccc12 [Example 25, N-(4,4-dimethyl-pentyl)-1,4-dimethyl-2-oxo-7-(trifluoromethyl)-1H-quinoline-3-carboxylic acid amide] |  |  |  | 
